Where “and” joins values, the source holds several entries; their conditions need not be identical. Equal entries are not always repeated. Entries after “also recorded” stand apart in the source; their conditions may differ. Where two headings read alike, the source gives them in different places.

For one series, the system named is Pseudomonas aeruginosa. The format is cell-based. Conditions: disc diffusion.
Series [1] relates to P. aeruginosa (ACTA 27853). It counts as in vivo. To be noted: for kill of Pseudomonas aeruginosa: both reagents and dose; for dose with most significant decrease of bacteria: day two and four; for bactericidal on stripped skin wound: 48 to 96 hours.
The subject of another series is P. acnes. The format is cell-based. Conditions: disc diffusion.
The subject of another series is TGF-β. As to the kind of experiment: Local growth hormone levels in normal mouse skin (Example 4). The format is in vivo, mice. To be noted: 100 μM topical, normal rodent skin. The procedure: (§1) Mice were shaved but unstrapped and uninfected (normal rodent skin). The test reagents were applied topically in an aqueous solution on the unstripped site at two hours and daily on day 1, 2 and 3. Testing reagents consisted of […] and PCA formulated at one dose, 100 μM in an aqueous solution.

For series [2], the system named is IGF-1. The description is as above. The format is in vivo, mice. Conditions: 100 μM topical, normal rodent skin. The method, then: as §1
For series [3], the system named is EGF. Described as above. The format is in vivo, mice. To be noted: 100 μM topical, normal rodent skin. The method, then: as §1
Series [4] has as its system skin stripped wounds infected with Pseudomonas aeruginosa (ATCC 27853). Description: Histological assessment of tape-stripped, infected mouse skin wound (Example 6). Conditions: for tissue repair as evidenced by histology: two different doses.
In series [5] the test system is P. aeruginosa (ACTA 9027). It counts as in vivo. Conditions: day five; for bacterial burden: topical 50, 100, 200 mM in water, none statistically significant; for most effective dose: topical, aqueous.
For series [6] the following is noted: upon ingestion; cited from earlier work.
In another series the test system is Candida albicans. The format is cell-based. Conditions: disc diffusion. From the text: This example describes the method for testing the antimicrobial susceptibility of anthocyanins, anthocyanidins, or metabolites and compounds thereof. The Kirby-Bauer method of disc diffusion was used for testing, following a standard set of procedures recommended by the NCCLS. In this methodology, a set of discs saturated with either testing compounds or a control was placed on inoculated agar plates. The plates were inoculated with organisms including C. difficile, P. acnes, C. prefringens, L. casei, C. albicans, E. coli, ATTC 8739 and ATCC 43895, S. aureus, S. mutans, S. pyogenes, P. aeruginosa and K. pneumonia. The control sample was amoxicillin, an antimicrobial with very effective broad-spectrum antibiotic properties. Samples included delphinidin, pelargonidin, cyanidin CI, 28% cyanindin-3-glucoside (C3G), protocatechuic acid (PCA) and 2,4,6 Trihydroxybenzaldehyde (2,4,6 THBA).
After 18, 24, or 48 hours of incubation, depending upon the microorganism, each plate was examined. The diameters of the zones of complete inhibition were measured, including the diameter of the disc. Zones were measured to the nearest millimeter, using sliding calipers. The size of the zones of inhibition was interpreted by referring to NCCLS standard. […]

Series [7] has as its system EGF. Description: Growth hormone levels in stripped mouse skin by ELISA (Example 5). The format is in vivo, mice. Conditions: 25 mM, infected and treated wound, 48 hours. The procedure: (§2) Four different conditions were used: mice had back skin tape stripped and the stripped site (wound) was infected with P. aeruginosa; mice had back skin stripped and were not infected, mice had taped stripped, infected and treated with PCA, mice were tape stripped, uninfected, and treated with PCA. When used, the PCA test reagent was applied topically in an aqueous solution on the stripped site at two hours and 24 hours.
(§3) The testing reagents consisted of and PCA formulated at one dose, 25 mM, in an aqueous solution. Levels of IGF-1, TGF-β, and EGF levels in the skin tissue at 48 hours were measured by ELISA. There were two control groups: the stripped skin and the stripped skin and infected.

The nature of series [8]: Solubility and hydrophilic-lipophile balance. The format is physicochemical.
In series [9] the test system is IGF-1. As to the kind of experiment: Growth hormone levels in stripped mouse skin by ELISA (Example 5). It counts as in vivo. Conditions: 25 mM; stripped and infected mice skin; 48 hours. The procedure: as §2, §3
For a further series, the system named is eye tissues. Description: Irritation of eye tissues.
The mark [10] stands for this setting: 48 and 96 hours, topical, aqueous.

On to `CC1(C)S[C@@H]2[C@H](NC(=O)[C@H](N)c3ccc(O)cc3)C(=O)N2[C@H]1C(=O)O` [Amoxicillin, amoxicillin, reference compound], for which, in the series on Pseudomonas aeruginosa, the “effect on Pseudomonas aeruginosa” value is listed as “no effect”.
As for `OC[C@H]1O[C@@H](Oc2cc3c(O)cc(O)cc3[o+]c2-c2ccc(O)c(O)c2)[C@H](O)[C@@H](O)[C@@H]1O` [C3G, Cyanidin 3-glucoside], in [1] (100 mM, 48 and 96 hours), the bacterial burden entry is “significantly reduced”. For the same molecule, the bacterial burden entry in [1] (200 mM, 48 and 96 hours) is given as “significantly reduced”. For the same molecule, the bacterial burden result in series [1] (setting [10]) is “decreased the bacterial burden”. Moreover, the “kill of Pseudomonas aeruginosa” value in [1] (48 hours) is reported as 10,000 fold. For the same molecule, in series [1], the “dose with most significant decrease of bacteria” value was 100 mM and 200 mM. Further, the “bactericidal on stripped skin wound” value in series [1] (topical) is recorded as “bactericidal”. In addition, in the series with P. acnes, the “bactericidal against P. acnes” value is recorded as “bactericidal” and the “susceptibility of P. acnes” value is reported as “susceptible”. For the same molecule, in the series with TGF-β, the “local level of TGF-β” value was “decrease”. Besides, the “local level of IGF-1” value in the series with IGF-1 [2] is recorded as “decrease”. Moreover, the “local level of EGF” value in the series with EGF [3] is on record as “decrease”. Further, in [4] (100 mM, 48 hours), the dermal layer thickness entry is listed as “thicker”; the hair follicles result was “single and double cellular lining”; the inflammation result was “inflammation in the dermis and muscular layer and below”; the surface cellularity result was “multiple cellular covering”. For the same molecule, in series [4] (100 mM, 48 hours), the vascularity result is reported as “prominent”. In [4] (200 mM, 48 hours), the dermal layer thickness entry is “thickened”; the hair follicles entry is “single and double cellular lining”; the inflammation entry was “inflammation in the dermis and muscular layer”; the surface cellularity result is recorded as “multiple cells thick”. In addition, the vascularity result in [4] (200 mM, 48 hours) is “increased”. Moreover, in [4], the “tissue repair as evidenced by histology” value is “stimulated tissue repair”. In addition, in [5], the bacterial burden result is on record as “decreased the bacterial burden” and the most effective dose is 100 mM.
`O=C(O)c1ccc(O)c(O)c1` [PCA, protocatechuic acid]: the “effect on Pseudomonas aeruginosa” value in the series with Pseudomonas aeruginosa is recorded as “some effectiveness”. In series [6], the “duration in the body” value is 8 h; the route of elimination entry is “via the urine and feces”; the “time of peak amount” value was 2 h. Also, the “statistical significance of bacterial burden reduction” value in series [1] (25 mM, 48 hours) is “statistically significant”. Also, the bacterial burden result in series [1] (25 mM, both time periods (48 and 96 hours)) is given as “reduced the bacterial burden”. Besides, in series [1] (setting [10]), the bacterial burden result is reported as “decreased the bacterial burden”. Further, the “kill of Pseudomonas aeruginosa” value in series [1] (48 hours) is 10,000 fold. Besides, in series [1], the “dose with most significant decrease of bacteria” value came out at 25 mM. For the same molecule, the “bactericidal on stripped skin wound” value in series [1] (topical) was “bactericidal”. In addition, the “susceptibility of Candida albicans” value in the series on Candida albicans is recorded as “susceptible”. Also, the EGF response level entry with EGF [7] is “lowest”. In addition, in the series on P. acnes, the “bactericidal against P. acnes” value was “bactericidal” and the “susceptibility of P. acnes” value is listed as “susceptible”. In addition, the “solubility in a lens care solution” value in [8] was “soluble”. In addition, the IGF-1 production entry in the series on IGF-1 [9] was “optimizes the IGF-1 production”. Besides, in series [4] (25 mM, 48 hours), the “collagen between epidermis and dermis” value is given as “collagen proliferation; also recorded: collagen layer formation”; the dermal layer thickness entry is given as “thickened”; the hair follicles entry is recorded as “prominent with multiple cellular lining”; the inflammation entry is “abundant inflammation”. Further, in series [4] (25 mM, 48 hours), the surface cellularity result was “abundant and multiple cell layers”; the vascularity entry is listed as “moderate vascularity”. Besides, in series [4] (50 mM, 48 hours), the dermal layer thickness entry is “thicker”; the hair follicles result is listed as “double layer of cells”; the inflammation result is “increased in the dermis and below the muscle layer”; the surface cellularity result was “covered with multiple layers of cells”. Moreover, the vascularity result in series [4] (50 mM, 48 hours) is reported as “increased vascularity”. The “tissue repair as evidenced by histology” value in [4] is given as “stimulated tissue repair”. Further, in the series with eye tissues, the “irritation of eye tissues” value is “non-irritating”. For the same molecule, in series [5], the bacterial burden entry was “decreased the bacterial burden” and the most effective dose came to 50 mM.

The values are drawn from patent publication US11951087B2, “Eye wash compositions and methods” (priority 2021, dated 2024).
